# Test results published in US7361643B2, “Methods for inhibiting angiogenesis” (University of Puerto Rico, priority 2000, dated 2008).
# What was measured:
# [1] = tested on: bovine adrenal medullary microvascular endothelial cells; experiment: Cell viability by trypan blue exclusion; assay type: cell-based; conditions: under tunicamycin exposure (0.5-5.0 μg/ml, 32 hours)
# Description: For proliferation assay, cells were trypsinized and counted in a hemacytometer. Viability of cells was determined by trypan blue (0.4% (v/v)) exclusion. Statistical analysis was carried out by StatView II software (Macintosh). Quantitation of cellular differentiation was carried out by observing under a Nikon AlphaShot inverted microscope, and counting the number of capillary lumen-like structures in five randomly selected fields per sample.
# Proliferation and Differentiation of Capillary Endothelial Cells: 2.0×10^4 cells were seeded per well in 24-well clusters in 1 ml complete EMEM containing 10% (v/v) serum and allowed to grow for 72 hours. Media were removed and the cells were washed twice with phosphate-buffer saline, pH 7.4 (PBS). […] Cells were routinely monitored by light microscopy. For proliferation assay, cells were trypsinized and counted in a hemacytometer. Viability of cells was determined by trypan blue (0.4% (v/v)) exclusion. […] Quantitation of cellular differentiation was carried out by observing under a Nikon AlphaShot inverted microscope, and counting the number of capillary lumen-like structures in five randomly selected fields per sample. The results were expressed as percent of its corresponding control after normalization of cell numbers. […] After FacSort calibration, 3000 events were counted per sample. […]
# [2] = tested on: Factor VIII:C; experiment: Factor VIII:C level by enzyme-linked immunoassay (ELISA); assay type: cell-based, bovine; conditions: 1 μg/ml tunicamycin
# Description: In conducting ELISA, 96-well microtiter EIA plates, available from Corning Inc., Corning, N.Y., were coated overnight at 4° C. with 50 μl mouse monoclonal anti-Factor VIII:C antibody (i.e., IgG1k which is commercially available from Molecular Biochemicals (previously known as “Boehringer-Mannheim”), Indianapolis, Ind. (diluted 1:500) in 100 mM sodium carbonate buffer, pH 9.2. Blank wells were coated similarly with 0.25 μg of bovine serum albumin (BSA). The plates were washed three times 50 μl each wash with 50 mM Tris-HCl, pH 7.5 containing 150 mM NaCl and 0.5% (v/v) Tween-20 (TBST), available from Bio-Rad Laboratories, Richmond, Calif. and incubated at 37° C. for one hour with 50 μl conditioned media or cell lysates. The cell lysates were obtained by incubating for 20 minutes with 1 ml of ice-cold 20 mM TRIS-HCL, pH 8.0 buffer containing 150 mM NaCl, 1% (v/v) NP-40 and 1 μg/ml aprotinin. At the end of the incubation, the plates were washed three times with TBST, as above, and incubated at 37° C. for another hour with 50 μl of 1:500 diluted monoclonal anti-Factor VIII:C antibody. […] The absorbance was read at approximately 405 nm after 30 minutes by using an EIA microplate reader, Model 2550 with a 405 nm filter, both available from Bio-Rad Laboratories, Richmond, Calif. […]
# [3] = tested on: bovine adrenal medullary microvascular endothelial cells; experiment: DNA laddering by agarose gel electrophoresis; assay type: cell-based; conditions: DNA from cells treated with 1 μg/ml tunicamycin for 32 hours
substance,measurement,setting,value
tunicamycin,total adherent cells viable,[1],more than 70%
same,time from which Factor VIII:C level started increasing,[2],≥ 32 h
same,level of immunopositive Factor VIII:C versus controls,[2]; conditioned media and cell lysates,high level
same,DNA laddering,[3],appearance of laddering
